In US9381142B2, “Olfactory adaptation and cross-adapting agents to reduce the perception of body odors” (Monell Chemical Senses Center, priority 2002, dated 2016):

What was measured:
[1] = tested on: female stress-derived axillary odor; assay: Cross-adaptation of female stress-derived axillary odor (odor panel, magnitude estimation of perceived intensity); type: in vivo, human; conditions: for Magnitude of Reduction of Intensity of Female Stress-Derived Odor (FSDO), Males: female stress-derived odor perceived by men; for Magnitude of Reduction of Intensity of Female Stress-Derived Odor (FSDO), Females: female stress-derived odor perceived by women
Description: (§1) The procedure relies upon an individual constantly sniffing an adapting agent, such as a fragrance, and occasionally a test odorant. Perceived intensity of the test odorant is obtained by using psychophysical, magnitude-estimation procedures. These perceived intensities are obtained every 30 seconds over the test period, and are then compared with baseline perceived intensities obtained before the individual began sniffing the adapting agent. Throughout the testing we observe adaptation to the adapting agent. Results during trials with an inserted test odorant, such as the axillary odor used here, are believed to be reasonably predictive. If the perceived intensity of the test odorant decreases during the test, then the adapting agent cross-adapts the test odorant and becomes a cross-adapting agent. If the cross-adapting agent is itself not offensive, then the cross-adapting agent becomes a candidate for use in formulations in consumer products to ameliorate malodors, such as axillary odor or fecal/urine odors, and odors related to the female menstrual cycle.
(§2) Collection of secretions: Apocrine secretions obtained under stressed conditions provided the axillary odor that was used as the test odorant to evaluate the effectiveness of various adapting agents. Secretions were obtained from males (ages 20 to 60 years) and females (ages 20 to 40 years) in good health. […] Volunteers prepared their axillae for collection of apocrine secretions by refraining from deodorant use for 3 days and shaving their axillae the morning of the collection day.
(§3) Volunteers were rested in a supine position. The axillary regions were washed with isopropanol-soaked pads and injected intradermally with 1:10,000 adrenalin (in physiologic saline). This injection stimulated the secretion of apocrine gland secretions, which were collected in 10 μl pipettes, passed into 0.25 ml Eppendorf tubes, and stored on ice (or frozen for longer storage). The amount of secretion collected varied greatly with the individual subject (≦10 μl). The apocrine secretions from each volunteer were combined by consecutively washing each Eppendorf tube with 2×300 μl of doubly distilled water. This aqueous-apocrine fluid was transferred to a 5 ml round-bottomed flask for hydrolysis. X-N. Zeng, J. J. Leyden, J. G. Brand, A. I. Spielman, K. J. McGinley, G. Preti, An Investigation of Human Apocrine Gland Secretion for Axillary Odor Precursors, 18 J. Chem. Ecol. 1039-1055 (1992); X-N. Zeng, J. J. Leyden, A. I. Spielman and G. Preti Analysis of the characteristic human female axillary odors: Qualitative comparison to males. 22 J. Chem. Ecol. 237-257 (1996).
(§4) Production of odor: To produce quantities of stress-derived axillary odor for testing purposes, we hydrolyzed the apocrine secretion. The aqueous solution was refluxed for 20 min with 0.5 ml, 5% aqueous sodium hydroxide under a stream of nitrogen. The mixture was allowed to cool to room temperature, and then it was cooled in ice prior to being acidified with 6 N HCl to pH 2. The resulting axillary odor developed in the reaction mixture upon acidification was used as the test odorant. The axillary odors generated by this in vitro technique are analogous to the malodors produced by stressed individuals.
A separate panel of 24 subjects (12 males and 12 females) tested samples of female stress-derived axillary odor with potential cross-adapting agents, some of which were not included in Example 1 above. Some of the subjects assessing the effectiveness of cross-adaptation of male stress-derived axillary odor were also used in the experiment with female secretions. However, these two experiments were treated as independent events. All panel members were screened for adequate use of magnitude estimation and further trained in its use during two to three training sessions. […]

[2] = tested on: male stress-derived axillary odor; assay: Cross-adaptation of male stress-derived axillary odor (odor panel, magnitude estimation of perceived intensity); type: in vivo, human; conditions: for Magnitude of Reduction of Intensity of Male Stress-Derived Odor (MSDO), Males: male stress-derived odor perceived by men; for Magnitude of Reduction of Intensity of Male Stress-Derived Odor (MSDO), Females: male stress-derived odor perceived by women
Description: as §1, §2, §3, §4
Sixteen (16) individuals (8 of each gender) served on an odor panel. Subjects ranged in age from 22 to 55 years (mean 32.7±10.6 s.d.), were not pregnant (by verbal report), and were all non-smokers. All panel members were screened for adequate use of magnitude estimation (some people have difficulties maintaining a ratio scale, i.e., when an odorant is half as strong as the previous, these people fail to provide a number that is half the previous estimate) and further trained in its use during 2-3 training sessions. All 16 subjects were tested with samples of male malodor compared to each of the potential cross-adapting agents. […]

[3] = listed as E-isomer 3-methyl-2-pentenoic acid ethyl ester
Further: key: best: Best = Superior Cross-Adaptation; good: Good = Adequate Cross-Adaptation; poor: Poor = Ineffective Cross-Adaptation.

alpha-n-methylionone [Isoraldeine 70]
Magnitude of Reduction of Intensity of Female Stress-Derived Odor (FSDO), Males [1]: best | Magnitude of Reduction of Intensity of Female Stress-Derived Odor (FSDO), Females [1]: poor

CCOC(=O)C=C(C)CC (single isomer, unassigned) [E-isomer of 3-methyl-2-pentenoic acid ethyl ester, 3-methyl-2-pentenoic acid ethyl ester]
Magnitude of Reduction of Intensity of Male Stress-Derived Odor (MSDO), Males [2]: good | Magnitude of Reduction of Intensity of Male Stress-Derived Odor (MSDO), Males [2, 3]: good | Magnitude of Reduction of Intensity of Male Stress-Derived Odor (MSDO), Females [2]: good | Magnitude of Reduction of Intensity of Male Stress-Derived Odor (MSDO), Females [2, 3]: good | Magnitude of Reduction of Intensity of Female Stress-Derived Odor (FSDO), Males [1]: poor | Magnitude of Reduction of Intensity of Female Stress-Derived Odor (FSDO), Females [1]: poor

C=CCCC(=O)C1=CCCC(C)(C)C1 [Dynascone 10, 1-(5,5-dimethyl-1-cyclohexen-1-yl)4-penten-1-one]
Magnitude of Reduction of Intensity of Male Stress-Derived Odor (MSDO), Males [2]: best | Magnitude of Reduction of Intensity of Male Stress-Derived Odor (MSDO), Females [2]: poor | Magnitude of Reduction of Intensity of Female Stress-Derived Odor (FSDO), Males [1]: good | Magnitude of Reduction of Intensity of Female Stress-Derived Odor (FSDO), Females [1]: good

CCCCCC(C)=CC(=O)OCC [E-isomer of 3-methyl-2-octenoic acid ethyl ester, 3-methyl-2-octenoic acid ethyl ester]
Magnitude of Reduction of Intensity of Female Stress-Derived Odor (FSDO), Males [1]: good | Magnitude of Reduction of Intensity of Female Stress-Derived Odor (FSDO), Females [1]: poor

CC(C)C1CCC(C(C)O)CC1 (stereo not shown) [Mugetanol, 1-(4-isopropylcyclohexyl)ethanol]
Magnitude of Reduction of Intensity of Male Stress-Derived Odor (MSDO), Males [2]: good | Magnitude of Reduction of Intensity of Male Stress-Derived Odor (MSDO), Females [2]: poor

CCC(C)(O)CCCC(C)C (stereo not shown) [Tetrahydro Linalool, 3,7-Dimethyloctan-3-ol]
Magnitude of Reduction of Intensity of Male Stress-Derived Odor (MSDO), Males [2]: best | Magnitude of Reduction of Intensity of Male Stress-Derived Odor (MSDO), Females [2]: poor

C=CC(C)CCCC(C)(C)O (stereo not shown) [Dihydromyrcenol, 2,6-dimethyl-7-octen-2-ol]
Magnitude of Reduction of Intensity of Male Stress-Derived Odor (MSDO), Males [2]: best | Magnitude of Reduction of Intensity of Male Stress-Derived Odor (MSDO), Females [2]: good | Magnitude of Reduction of Intensity of Female Stress-Derived Odor (FSDO), Males [1]: best | Magnitude of Reduction of Intensity of Female Stress-Derived Odor (FSDO), Females [1]: good

Cc1cccc(CC(C)(C)CO)c1 [MAJANTOL ®, 2,2-dimethyl-3-(methylphenyl)propanol]
Magnitude of Reduction of Intensity of Female Stress-Derived Odor (FSDO), Males [1]: good | Magnitude of Reduction of Intensity of Female Stress-Derived Odor (FSDO), Females [1]: poor

COC(C=C(C)CCC=C(C)C)OC [Citrylal, Octa-2,6-dien; 1,1-dimethoxy-3-7-dimethyl]
Magnitude of Reduction of Intensity of Male Stress-Derived Odor (MSDO), Males [2]: best | Magnitude of Reduction of Intensity of Male Stress-Derived Odor (MSDO), Females [2]: good

CC(C)=CCC(C)(C)C(=O)C(C)C [CLARITONE ®, 2,4,4,7-tetramethyl-oct-6-en-3-one]
Magnitude of Reduction of Intensity of Male Stress-Derived Odor (MSDO), Males [2]: best | Magnitude of Reduction of Intensity of Male Stress-Derived Odor (MSDO), Females [2]: best | Magnitude of Reduction of Intensity of Female Stress-Derived Odor (FSDO), Males [1]: best | Magnitude of Reduction of Intensity of Female Stress-Derived Odor (FSDO), Females [1]: good

CO[C@]1(C)CC[C@@]23C[C@@H]1C(C)(C)[C@@H]2CC[C@H]3C [CEDRAMBER ®, cedryl methyl ether]
Magnitude of Reduction of Intensity of Male Stress-Derived Odor (MSDO), Males [2]: good | Magnitude of Reduction of Intensity of Male Stress-Derived Odor (MSDO), Females [2]: poor | Magnitude of Reduction of Intensity of Female Stress-Derived Odor (FSDO), Males [1]: good | Magnitude of Reduction of Intensity of Female Stress-Derived Odor (FSDO), Females [1]: good

CC(O)C(C)CC1C(C)CCCC1(C)C (stereo not shown) [Timbranol, Isomethyltetrahydroionol]
Magnitude of Reduction of Intensity of Male Stress-Derived Odor (MSDO), Males [2]: poor | Magnitude of Reduction of Intensity of Male Stress-Derived Odor (MSDO), Females [2]: poor

CC(=O)c1oc2ccccc2c1C [Nerolione, 1-(3-bethyl-2-benzofuranyl)-ethanone]
Magnitude of Reduction of Intensity of Male Stress-Derived Odor (MSDO), Males [2]: good | Magnitude of Reduction of Intensity of Male Stress-Derived Odor (MSDO), Females [2]: poor

CC=CC(=O)C1C(C)=CCCC1(C)C (stereo not drawn) [α-Damascone, 1-(2,6,6-trimethyl-2-cyclohexen-1-yl)-2-buten-1-one]
Magnitude of Reduction of Intensity of Male Stress-Derived Odor (MSDO), Males [2]: poor | Magnitude of Reduction of Intensity of Male Stress-Derived Odor (MSDO), Females [2]: poor | Magnitude of Reduction of Intensity of Female Stress-Derived Odor (FSDO), Males [1]: poor | Magnitude of Reduction of Intensity of Female Stress-Derived Odor (FSDO), Females [1]: good

CC(=O)C=CC1C(C)=CCCC1(C)C (stereo not drawn) [α-ionone, 4-(2,2,6-trimethyl-2cyclohexen-1-yl)-3-buten-2-one]
Magnitude of Reduction of Intensity of Female Stress-Derived Odor (FSDO), Males [1]: good | Magnitude of Reduction of Intensity of Female Stress-Derived Odor (FSDO), Females [1]: good

CC1=CC(C)C(C=O)CC1 (stereo not shown) [Vertocitral, 2,4-dimethyl-3-cyclohexene-1-carboxaldehyde]
Magnitude of Reduction of Intensity of Male Stress-Derived Odor (MSDO), Males [2]: good | Magnitude of Reduction of Intensity of Male Stress-Derived Odor (MSDO), Females [2]: best | Magnitude of Reduction of Intensity of Female Stress-Derived Odor (FSDO), Males [1]: best | Magnitude of Reduction of Intensity of Female Stress-Derived Odor (FSDO), Females [1]: best

O=C1CCCC=CCCCCCCCCCC1 [GLOBANONE ®, cyclohexadecen-5-one-1]
Magnitude of Reduction of Intensity of Female Stress-Derived Odor (FSDO), Males [1]: good | Magnitude of Reduction of Intensity of Female Stress-Derived Odor (FSDO), Females [1]: poor

CC(=O)c1cc2c(cc1C)C(C)(C)C(C)CC2(C)C (stereo not shown) [Tonalide, 7-Acetyl-1,1,3,4,4,6-hexamethyltetralin]
Magnitude of Reduction of Intensity of Male Stress-Derived Odor (MSDO), Males [2]: good | Magnitude of Reduction of Intensity of Male Stress-Derived Odor (MSDO), Females [2]: poor

CC(C=O)Cc1ccc(C(C)(C)C)cc1 (stereo not drawn) [Lilial, 4-(1,1-dimethylethyl)-alpha-methylbenzenepropanal]
Magnitude of Reduction of Intensity of Female Stress-Derived Odor (FSDO), Males [1]: good | Magnitude of Reduction of Intensity of Female Stress-Derived Odor (FSDO), Females [1]: poor

COC(=O)c1c(C)cc(O)c(C)c1O [Evernyl, methyl 2,4-dihydroxy-3,6-dimethylbenzoate]
Magnitude of Reduction of Intensity of Female Stress-Derived Odor (FSDO), Males [1]: poor | Magnitude of Reduction of Intensity of Female Stress-Derived Odor (FSDO), Females [1]: good

Cc1ccc2c(c1)OCC(=O)CO2 [Calone 1951, 7-methyl-314-dihydro-2H-1,5-benzodioxepin-3-one]
Magnitude of Reduction of Intensity of Female Stress-Derived Odor (FSDO), Males [1]: good | Magnitude of Reduction of Intensity of Female Stress-Derived Odor (FSDO), Females [1]: good

CC(C)(O)CCCC1=CCC(C=O)CC1 (stereo not shown) [Lyral, 4-(4-hydroxy-4-methylpentyl)-3-cyclohexenE-1-carboxaldehyde]
Magnitude of Reduction of Intensity of Female Stress-Derived Odor (FSDO), Males [1]: good | Magnitude of Reduction of Intensity of Female Stress-Derived Odor (FSDO), Females [1]: poor

isobornyl cyclohexanol
Magnitude of Reduction of Intensity of Male Stress-Derived Odor (MSDO), Males [2]: good | Magnitude of Reduction of Intensity of Male Stress-Derived Odor (MSDO), Females [2]: poor

COc1ccc(C=O)cc1 [Anisic Aldehyde, 4-methoxybenzaldehyde]
Magnitude of Reduction of Intensity of Female Stress-Derived Odor (FSDO), Males [1]: best | Magnitude of Reduction of Intensity of Female Stress-Derived Odor (FSDO), Females [1]: good

CC=CC(=O)C1C(C)C=CCC1(C)C (stereo not shown) [Δ-Damascone, 1-(2,6,6-trimethyl-3-cyclohexen-1-yl)-2-buten-1-one]
Magnitude of Reduction of Intensity of Male Stress-Derived Odor (MSDO), Males [2]: best | Magnitude of Reduction of Intensity of Male Stress-Derived Odor (MSDO), Females [2]: good

CCOc1cc(C=O)ccc1O [Ethyl Vanillin, 3-Ethoxy-4-hydroxybenzaldehyde]
Magnitude of Reduction of Intensity of Female Stress-Derived Odor (FSDO), Males [1]: best | Magnitude of Reduction of Intensity of Female Stress-Derived Odor (FSDO), Females [1]: poor

C/C=C/C(=O)OC(C)C1CCCCC1 (stereo not shown) [Datilat, Cyclohexyl methyl carbinol crotonate]
Magnitude of Reduction of Intensity of Male Stress-Derived Odor (MSDO), Males [2]: poor | Magnitude of Reduction of Intensity of Male Stress-Derived Odor (MSDO), Females [2]: poor
